Reference: patent US20170369529A1, “CELL PENETRATING PEPTIDES” (Hoffmann-La Roche Inc., priority 2014, published 2017)
Positions of bridges follow the written chain, without caps; N, C: chain ends. Non-standard residues stand in square brackets, D forms with d. Nle = CCCC[C@H](N)C(=O)O; AEEA = NCCOCCOCC(=O)O; Fluo = fluorescein

Experiments:
Format in all cases: cell-based
Jurkat = assay: Cell penetration (cellular uptake by confocal microscopy) in Jurkat cells; settings: t 2 h, 2 μM CPP, no fetal calf serum, 37° C., fluorescein fluorescence
Protocol: (§1) Methods and Procedures: Cells were plated onto μ-slide 8 well chambered coverslips (IBIDI) with ibidi standard-bottom and cultured overnight. Peptide stocks were prepared in MillQ and were diluted in cell growth media for cellular uptake studies. Cells were carefully washed with culture medium without fetal calf serum, incubated with 2 μM CPP concentration in absence of fetal calf serum and analyzed by confocal microscopy regarding uptake efficiency and localization over 2 h at 37° C. Finally, trypan blue (0.4% end concentration) was administered to quench cell surface fluorescence followed by an endpoint imaging step. Plates were imaged with an excitation at 488 nm and detection of fluorescence over 500-550 nm (fluorescein) using a TCS SP5 confocal microscope (Leica 174 Microsystems, Mannheim, Germany) equipped with an HCX PL APO 175 63×N.A. 1.2 water immersion lens and a temperature-controlled microscope stage.

HEK293T cells = assay: Cell penetration (cellular uptake by confocal microscopy) in HEK293T cells; settings: 2 μM CPP; for cell penetration, HEK293T (t2 h): t 2 h, no fetal calf serum, 37° C., fluorescein fluorescence
Protocol: (§2) The peptides of the invention were tested for cell penetration in HeLa and HEK293T cell lines.
(§3) Materials: The HeLa (DSMZ) and HEK293T cells were maintained in growth media and then passaged every 2-3 days. Growth media for HeLa cells was RPMI 1640, 10% fetal calf serum, MEM-non-essential amino acids, sodium pyruvate and L-glutamine (GIBCO). Growth media for HEK293T DMEM was supplemented with 10% fetal calf serum, MEM-non-essential amino acids, sodium pyruvate and glutamine (all GIBCO).
as §1

HeLa cells = assay: Cell penetration (cellular uptake by confocal microscopy) in HeLa cells; settings: 2 μM CPP; for penetration of HeLa cells (in words) / localization of fluorescence in HeLa cells: confocal microscopy; for penetration of HeLa cells (in words): intracellular signal; for cell penetration, HeLa(t2 h): t 2 h
Protocol: as §2, §3, §1

[1] = no fetal calf serum, 37° C., fluorescein fluorescence

For “Fluo-(D-Met)-Ile-(D-Ile)-Leu-Ile-Ile-Gly-Ser-Thr-Ser-Arg-Asp-His-Nle-Val-Leu-His-Glu-Tyr-Val-Asn-Ala-Ala-Gly-Ile-Thr-Ado-NH2 (Fluo-[dM]I[dI]LIIGSTSRDH[Nle]VLHEYVNAAGIT-{AEEA-NH2}) [Example 5]”, the “cell penetration, Jurkat (t2 h)” value (Jurkat) was 0.18, the “cell penetration, HEK293T (t2 h)” value (HEK293T cells) was 0.5 and the “penetration of HeLa cells (in words)” value (HeLa cells) was “low intracellular signals”. For the same substance, the “cell penetration, HeLa(t2 h)” value (HeLa cells; [1]) was 0.22.

For “Fluo-Met-Ile-Ile-Leu-Ile-Ile-Gly-Ser-Thr-Ser-Arg-Asp-His-Met-Val-Leu-His-Glu-Tyr-Val-Asn-Ala-Ala-Gly-Ile-Thr-NH2 (fluorescein-MIILIIGSTSRDHMVLHEYVNAAGIT-NH2) [Example 1]”, the “localization of fluorescence in HeLa cells” value (HeLa cells) was “localized in endosomes and cytosol”, the “penetration of HeLa cells (in words)” value (HeLa cells) was “high” and the “cell penetration, HeLa (t30 min)” value (HeLa cells; t 30 min, no fetal calf serum, 37° C., fluorescein fluorescence) was 0.13. For the same substance, the “cell penetration, HeLa(t2 h)” value (HeLa cells; [1]) was 0.11.

“Fluo-Met-Ile-Ile-Leu-Ile-Ile-Met-Gly-Val-Ala-Asp-Leu-Ile-Lys-Lys-Phe-Glu-Ser-Ile-Ser-Lys-Glu-Glu-NH2 [Example 6]” was tested, and the “cell penetration, Jurkat (t2 h)” value (Jurkat) was 0.44, the “cell penetration, HEK293T (t2 h)” value (HEK293T cells) was 0.08 and the “penetration of HeLa cells (in words)” value (HeLa cells) was “low intracellular signals”. The “cell penetration, HeLa(t2 h)” value (HeLa cells; [1]) was 0.14.

With “Fluo-Nle-Ile-Ile-Leu-Ile-Ile-Gly-Ser-Thr-Ser-Arg-Asp-His-Nle-Val-Leu-His-Glu-Tyr-Val-Asn-Ala-Ala-Gly-Ile-Thr-Ado-NH2 (Fluo-[Nle]IILIIGSTSRDH[Nle]VLHEYVNAAGIT-{AEEA-NH2}) [Example 4]” the “cell penetration, Jurkat (t2 h)” value (Jurkat) was 0.85, the “cell penetration, HEK293T (t2 h)” value (HEK293T cells) was 0.16 and the “cell penetration, HeLa(t2 h)” value (HeLa cells; [1]) was 0.12.

With “Fluo-Phe-Ile-cyclo(Asp-Ile-Ile-Ile-Lys)-Ile-Leu-Leu-Ile-Gly-Ser-Thr-Ser-Arg-Asp-His-Nle-Val-Leu-His-Glu-Tyr-Val-Asn-Ala-Ala-Gly-Ile-Thr-Ado-NH2 (Fluo-FIDIIIKILLIGSTSRDH[Nle]VLHEYVNAAGIT-{AEEA-NH2}; lactam 3-7) [Example 7]” the “cell penetration, Jurkat (t2 h)” value (Jurkat) was 1.35, the “localization of fluorescence in HEK293T cells” value (HEK293T cells; confocal microscopy) was “pronounced cytosolic and partly endosomal fluorescence” and the “cell penetration, HEK293T (t2 h)” value (HEK293T cells) was 0.28. For the same substance, the “localization of fluorescence in HeLa cells” value (HeLa cells) was “localized in endosomes”, the “penetration of HeLa cells (in words)” value (HeLa cells) was “high” and the “cell penetration, HeLa(t2 h)” value (HeLa cells; [1]) was 0.28.

In the case of “Fluo-cyclo(Lys-Ile-Ile-Ile-Ile-Asp)-Gly-Ser-Thr-Ser-Arg-Asp-His-Nle-Val-Leu-His-Glu-Tyr-Val-Asn-Ala-Ala-Gly-Ile-Thr-Ado-NH2 (Fluo-KIIIIDGSTSRDH[Nle]VLHEYVNAAGIT-{AEEA-NH2}; lactam 1-6) [Example 2]”, the “cell penetration, Jurkat (t2 h)” value (Jurkat) is reported as 0.9, the “cell penetration, HEK293T (t2 h)” value (HEK293T cells) is reported as 0.23 and the “penetration of HeLa cells (in words)” value (HeLa cells) is reported as “low intracellular signals”. The “cell penetration, HeLa(t2 h)” value (HeLa cells; [1]) was 0.18.

With “Fluo-cyclo(Lys-Nle-Ile-Ile-Leu-Ile-Ile-Asp)-Gly-Ser-Thr-Ser-Arg-Asp-His-Nle-Val-Leu-His-Glu-Tyr-Val-Asn-Ala-Ala-Gly-Ile-Thr-Ado-NH2 (Fluo-K[Nle]IILIIDGSTSRDH[Nle]VLHEYVNAAGIT-{AEEA-NH2}; lactam 1-8) [Example 3]” the “cell penetration, Jurkat (t2 h)” value (Jurkat) was 0.77, the “cell penetration, HEK293T (t2 h)” value (HEK293T cells) was 0.35 and the “penetration of HeLa cells (in words)” value (HeLa cells) was “low intracellular signals”. For the same substance, the “cell penetration, HeLa(t2 h)” value (HeLa cells; [1]) was 0.28.
